Data set [1] deals with Mycobacterium tuberculosis. Description: Antimycobacterial against Mycobacterium tuberculosis. The class given is functional.
For data set [2], the system named is Mycobacterium tuberculosis. In words: Antimycobacterial against Mycobacterium tuberculosis H37Rv incubated for 7 days by MABA assay. To be noted: 168 h. The class given is functional. (In general: Alamar Blue is a resazurin reagent that responds to reducing activity.)
In another data set the test system is Influenza A virus. In words: Antiviral activity against Influenza A virus (A/Puerto Rico/8/1934(H1N1)) infected in MDCK cells assessed as reduction in virus titer using cells pre-treated with compound followed by virus infection for 24 hrs by hemagglutination test. The class given is functional, organism-based.
Data set [3] is described as follows: Cytotoxicity in MDCK cells assessed as reduction in cell viability incubated for 48 hrs by MTT assay. As to conditions: dog. The class given is cell-based, Canis lupus familiaris. On the technique in general: Tetrazolium assays rely on reduction of a dye to a coloured formazan, in cell work by metabolically active cells.
Data set [4] can be described thus: Selectivity index, ratio of CC50 for cytotoxicity in MDCK cells to IC50 for antiviral activity against Influenza A virus (A/Puerto Rico/8/1934(H1N1)) infected in MDCK cells. The class given is toxicity, cell-based. As to conditions: dog, read-out: Ratio CC50/IC50.

Each structure is given as a SMILES string. In brackets after ≈: the same amount, converted by molar mass.

Consider `CN(C)CCc1ccc(-c2cc3cc(Br)ccc3nc2OCc2cccc3ccccc23)cc1`, for which the MIC (commonly the lowest concentration that inhibits growth of the organism) in data set [1] stood at 0.43 µg/mL (≈ 0.841 µM).

Regarding `Fc1ccc(-c2cn(CC3=C(Cl)c4ccc(-c5cccs5)nc4CC3)nn2)cc1`, it took 12.5 µg/mL (≈ 29.6 µM) to inhibit growth in data set [2] (MIC). In addition, in the data set with Influenza A virus, the concentration for half-maximal inhibition (IC50) (as a rule, the concentration that inhibits the measured activity by half) was 80 µg/mL (≈ 189 µM). Also, in data set [3], the CC50 (as a rule, the concentration giving 50% cytotoxicity) at 48 h stood at 100 µg/mL (≈ 236 µM). Further, the selectivity ratio in data set [4] came out at 1.

`O=C1c2ccccc2C(=O)N1Cc1cn(CC2=C(Cl)c3ccc(-c4cccs4)nc3CC2)nn1`: the lowest concentration to inhibit growth in data set [2] (MIC) was 25 µg/mL (≈ 51.2 µM). The IC50 with Influenza A virus came out at 200 µg/mL (≈ 410 µM). For the same compound, the CC50 at 48 h in data set [3] was > 300 µg/mL. Also, the selectivity ratio in data set [4] was determined as 2.

`ClC1=C(Cn2cc(C3CC3)nn2)CCc2nc(-c3cccs3)ccc21` returned an MIC in data set [2] of 6.25 µg/mL (≈ 16.9 µM). The IC50 with Influenza A virus was > 300 µg/mL. In addition, the CC50 at 48 h in data set [3] is > 300 µg/mL. Besides, in data set [4], the selectivity ratio amounted to 1.

Compound `FC(F)(F)c1ccccc1-c1cn(CC2=C(Cl)c3ccc(-c4cccs4)nc3CC2)nn1` displayed an MIC in data set [2] of 12.5 µg/mL (≈ 26.4 µM). Moreover, in the data set on Influenza A virus, the IC50 was 160 µg/mL (≈ 338 µM). Also, the CC50 at 48 h in data set [3] is > 300 µg/mL. Also, the selectivity ratio in data set [4] was 2.

In the case of `Fc1ccc(-c2cn(CC3=C(Cl)c4ccc(-c5cccs5)nc4CC3)nn2)c(F)c1`, the MIC in data set [2] came to 25 µg/mL (≈ 56.7 µM). The IC50 in the data set with Influenza A virus was 165 µg/mL (≈ 374 µM). In addition, the CC50 at 48 h in data set [3] amounted to 188 µg/mL (≈ 426 µM). Moreover, in data set [4], the selectivity ratio was 1.

`FC(F)(F)c1cc(-c2cn(CC3=C(Cl)c4ccc(-c5cccs5)nc4CC3)nn2)cc(C(F)(F)F)c1` gave an MIC in data set [2] of 25 µg/mL (≈ 46.2 µM). Further, the IC50 in the data set on Influenza A virus was > 30 µg/mL. The CC50 at 48 h in data set [3] turned out to be 35 µg/mL (≈ 64.7 µM). Further, the selectivity ratio in data set [4] was 1.

Regarding `CC(C)(C)c1ccc(-c2cn(CC3=C(Cl)c4ccc(-c5cccs5)nc4CC3)nn2)cc1`, the minimal inhibitory concentration (MIC) in data set [2] was 3.12 µg/mL (≈ 6.77 µM). The IC50 in the data set with Influenza A virus turned out to be 64 µg/mL (≈ 139 µM). In addition, in data set [3], the cytotoxic concentration (CC50) at 48 h turned out to be 172 µg/mL (≈ 373 µM). In data set [4], the selectivity ratio came to 3.

Compound `CC(C)(C)c1nn(-c2cc(Cl)cc(Cl)c2OCc2cn(CC3=C(Cl)c4ccc(-c5cccs5)nc4CC3)nn2)c(=O)o1` displayed an MIC in data set [2] of 25 µg/mL (≈ 38.8 µM). Besides, in the data set on Influenza A virus, the IC50 was > 300 µg/mL. Also, in data set [3], the CC50 at 48 h was > 300 µg/mL. In addition, the selectivity ratio in data set [4] is 1.

In turn, `CCCCCc1cn(CC2=C(Cl)c3ccc(-c4cccs4)nc3CC2)nn1` displayed an MIC in data set [2] of 6.25 µg/mL (≈ 15.7 µM). Further, the IC50 in the data set on Influenza A virus came to 17 µg/mL (≈ 42.6 µM). Besides, the CC50 at 48 h in data set [3] is 50 µg/mL (≈ 125 µM). In addition, the selectivity ratio in data set [4] amounted to 3.

In data set [2], `ClC1=C(Cn2cc(-c3ccsc3)nn2)CCc2nc(-c3cccs3)ccc21` registered an MIC of 25 µg/mL (≈ 60.8 µM). For the same compound, the concentration for half-maximal inhibition (IC50) in the data set with Influenza A virus turned out to be 195 µg/mL (≈ 475 µM). Besides, in data set [3], the CC50 at 48 h was > 300 µg/mL. In addition, the selectivity ratio in data set [4] came out at 15.

The compound `O=[N+]([O-])c1ccc(-c2cn(CC3=C(Cl)c4ccc(-c5cccs5)nc4CC3)nn2)cc1` showed an MIC in data set [2] of 12.5 µg/mL (≈ 27.8 µM). For the same compound, the IC50 in the data set with Influenza A virus is > 30 µg/mL. Further, the cytotoxic concentration (CC50) at 48 h in data set [3] was determined as 40 µg/mL (≈ 88.9 µM). Besides, in data set [4], the selectivity ratio was determined as 1.

For the compound `CN(C)Cc1ccc(-c2cc3cc(Br)ccc3nc2OCc2ccncc2)cc1`, the lowest concentration to inhibit growth in data set [1] (MIC) was 0.43 µg/mL (≈ 0.959 µM).

For the compound `ClC1=C(Cn2cc(-c3ccc(Cl)c(Cl)c3)nn2)CCc2nc(-c3cccs3)ccc21`, the lowest concentration to inhibit growth in data set [2] (MIC) was 25 µg/mL (≈ 52.8 µM). Further, the IC50 in the data set on Influenza A virus is 26 µg/mL (≈ 54.9 µM). Besides, the CC50 at 48 h in data set [3] was > 300 µg/mL. Besides, in data set [4], the selectivity ratio stood at 12.

For the compound `ClC1=C(Cn2cc(-c3cc4ccccc4c4ccccc34)nn2)CCc2nc(-c3cccs3)ccc21`, inhibition of growth in data set [2] (MIC) required 25 µg/mL (≈ 49.5 µM). Further, the IC50 with Influenza A virus is > 300 µg/mL. Moreover, in data set [3], the CC50 at 48 h was > 300 µg/mL. In addition, in data set [4], the selectivity ratio came out at 1.

Turning to `COc1ccc(-c2cn(CC3=C(Cl)c4ccc(-c5cccs5)nc4CC3)nn2)cc1`, the MIC in data set [2] is 25 µg/mL (≈ 57.5 µM). Moreover, in the data set with Influenza A virus, the IC50 is 160 µg/mL (≈ 368 µM). In addition, in data set [3], the CC50 at 48 h was > 300 µg/mL. In data set [4], the selectivity ratio stood at 2.

`FC(F)(F)Oc1ccc(-c2cn(CC3=C(Cl)c4ccc(-c5cccs5)nc4CC3)nn2)cc1` yielded an MIC in data set [2] of 25 µg/mL (≈ 51.1 µM). In the data set on Influenza A virus, the IC50 stood at 65 µg/mL (≈ 133 µM). The CC50 at 48 h in data set [3] is > 300 µg/mL. Also, in data set [4], the selectivity ratio was 5.

The compound `O=C(O)c1cn(C2CC2)c2cc(N3CCNCC3)c(F)cc2c1=O` [CIPROFLOXACIN] had an MIC in data set [2] of 1.56 µg/mL (≈ 4.71 µM).

`CC[C@@H](CO)NCCN[C@@H](CC)CO` [ETHAMBUTOL] yielded an MIC in data set [2] of 3.13 µg/mL (≈ 15.3 µM). This MIC lies about 2-fold higher than the previous one.

Compound `NNC(=O)c1ccncc1` [ISONIAZID] came in with an MIC in data set [2] of 0.1 µg/mL (≈ 0.729 µM).

Consider `CCC(CC)O[C@@H]1C=C(C(=O)O)C[C@H](N)[C@H]1NC(C)=O` [OSELTAMIVIR CARBOXYLATE], for which the IC50 with Influenza A virus was determined as 0.06 µg/mL (≈ 0.211 µM). Besides, in data set [3], the CC50 at 48 h is > 30 µg/mL. In data set [4], the selectivity ratio is > 500.

With `CO[C@H]1/C=C/O[C@@]2(C)Oc3c(C)c(O)c4c(O)c(c(/C=N/N5CCN(C)CC5)c(O)c4c3C2=O)NC(=O)/C(C)=C\C=C\[C@H](C)[C@H](O)[C@@H](C)[C@@H](O)[C@@H](C)[C@H](OC(C)=O)[C@@H]1C` [RIFAMPIN], the lowest concentration to inhibit growth in data set [2] (MIC) was 0.2 µg/mL (≈ 0.243 µM).

Regarding `CC(N)C12CC3CC(CC(C3)C1)C2` (configuration not stated) [RIMANTADINE], the IC50 in the data set with Influenza A virus came out at 10 µg/mL (≈ 55.8 µM). In addition, the CC50 at 48 h in data set [3] is 62 µg/mL (≈ 346 µM). The selectivity ratio in data set [4] is 6.

Source of the values: ChEMBL document CHEMBL4385660, “5-Chloro-2-thiophenyl-1,2,3-triazolylmethyldihydroquinolines as dual inhibitors of Mycobacterium tuberculosis and influenza virus: Synthesis and evaluation” (Bioorg Med Chem Lett, 2019).
